What was measured:
[1] = Astringency evaluation of green tea drink (flavor comparison by 10 panelists); format: in vivo; details: for A: the number of panelists who felt no difference from sedanenolide-free / B: the number of panelists who felt some reduction in astringency / Flavor judgment: the number of panelists who judged it as most proper astringency / N: the number of panelists who hardly felt astringency: 10 panelists
Experimental: Five thousand grams of hot water (containing 0.03% of sodium ascorbate) of 95° C. was added to 100 g of domestic green tea (second picking tea), followed by extraction for 5 min while sometimes stirring. Subsequently, solid-liquid separation with flannel filter was performed to obtain 4500 g of an extract (Bx 0.7°). This extract was adjusted to Bx 0.5° with deionized water to obtain green tea extract having strong astringency. Sedanenolide was added as a taste-improving agent (masking agent for astringency) of the present invention to the resulting extract at the concentrations shown in the following Table 4 to obtain green tea drinks.

[2] = Bitterness evaluation of carbonated water (flavor comparison by 10 panelists); format: in vivo; details: for A: the number of panelists who felt no difference from sedanenolide-free / B: the number of panelists who felt some reduction in bitterness / Flavor judgment: the number of panelists who judged it as most proper bitterness / N: the number of panelists who hardly felt bitterness: 10 panelists
Experimental: Sedanenolide was added as a bitterness-improving agent (masking agent for bitterness) of the present invention to sufficiently deaerated pure water at the concentrations shown in the following Table 4, and then carbon dioxide gas was sealed in each bottle at a pressure of 294 KPa to obtain carbonated water of the present invention.

[3] = sedanenolide 0.01 ppb in green tea drink having strong astringency
[4] = sedanenolide 0.01 ppm in green tea drink having strong astringency
[5] = sedanenolide 0.1 ppb in green tea drink having strong astringency
[6] = sedanenolide 0.1 ppm in green tea drink having strong astringency
[7] = sedanenolide 1 ppb in green tea drink having strong astringency
[8] = sedanenolide 1 ppm in green tea drink having strong astringency
[9] = sedanenolide 1 ppt in green tea drink having strong astringency
[10] = sedanenolide 10 ppm in green tea drink having strong astringency
[11] = sedanenolide 0.01 ppb in carbonated water
[12] = sedanenolide 0.01 ppm in carbonated water
[13] = sedanenolide 0.1 ppb in carbonated water
[14] = sedanenolide 0.1 ppm in carbonated water
[15] = sedanenolide 1 ppb in carbonated water
[16] = sedanenolide 1 ppm in carbonated water
[17] = sedanenolide 1 ppt in carbonated water
[18] = sedanenolide 10 ppm in carbonated water

CCCC[C@@H]1OC(=O)C2=C1CCC=C2 [sedanenolide]
overall result of astringency masking ([1]; amount of sedanenolide about 0.1 ppb to 1 ppm, green tea drink): particularly good results were obtained
astringency of green tea drink (judgment) ([1]; green tea drink containing 0.01 ppb to 10 ppm of sedanenolide): masked
A: the number of panelists who felt no difference from sedanenolide-free [1, 3]: 8
B: the number of panelists who felt some reduction in astringency [1, 3]: 2
Flavor judgment: the number of panelists who judged it as most proper astringency [1, 3]: 0
N: the number of panelists who hardly felt astringency [1, 3]: 0
reduction in bitterness at low concentration ([1]; sedanenolide 0.01 ppb, green tea drink having strong astringency): some panelists felt some reduction in bitterness
A: the number of panelists who felt no difference from sedanenolide-free [1, 4]: 3
B: the number of panelists who felt some reduction in astringency [1, 4]: 6
Flavor judgment: the number of panelists who judged it as most proper astringency [1, 4]: 2
N: the number of panelists who hardly felt astringency [1, 4]: 1
A: the number of panelists who felt no difference from sedanenolide-free [1, 5]: 6
B: the number of panelists who felt some reduction in astringency [1, 5]: 3
Flavor judgment: the number of panelists who judged it as most proper astringency [1, 5]: 0
N: the number of panelists who hardly felt astringency [1, 5]: 1
A: the number of panelists who felt no difference from sedanenolide-free [1, 6]: 0
B: the number of panelists who felt some reduction in astringency [1, 6]: 3
Flavor judgment: the number of panelists who judged it as most proper astringency [1, 6]: 5
N: the number of panelists who hardly felt astringency [1, 6]: 7
A: the number of panelists who felt no difference from sedanenolide-free [1, 7]: 5
B: the number of panelists who felt some reduction in astringency [1, 7]: 5
Flavor judgment: the number of panelists who judged it as most proper astringency [1, 7]: 0
N: the number of panelists who hardly felt astringency [1, 7]: 0
A: the number of panelists who felt no difference from sedanenolide-free [1, 8]: 0
B: the number of panelists who felt some reduction in astringency [1, 8]: 3
Flavor judgment: the number of panelists who judged it as most proper astringency [1, 8]: 3
N: the number of panelists who hardly felt astringency [1, 8]: 7
A: the number of panelists who felt no difference from sedanenolide-free [1, 9]: 10
B: the number of panelists who felt some reduction in astringency [1, 9]: 0
Flavor judgment: the number of panelists who judged it as most proper astringency [1, 9]: 0
N: the number of panelists who hardly felt astringency [1, 9]: 0
A: the number of panelists who felt no difference from sedanenolide-free [1, 10]: 0
B: the number of panelists who felt some reduction in astringency [1, 10]: 2
Flavor judgment: the number of panelists who judged it as most proper astringency [1, 10]: 0
N: the number of panelists who hardly felt astringency [1, 10]: 8
overall result of bitterness masking ([2]; amount of sedanenolide about 0.1 ppb to 1 ppm, carbonated water): particularly good results were obtained
bitterness of carbonated water (judgment) ([2]; carbonated water containing 0.01 ppb to 10 ppm of sedanenolide): masked
A: the number of panelists who felt no difference from sedanenolide-free [2, 11]: 7
B: the number of panelists who felt some reduction in bitterness [2, 11]: 3
Flavor judgment: the number of panelists who judged it as most proper bitterness [2, 11]: 0
N: the number of panelists who hardly felt bitterness [2, 11]: 0
reduction in bitterness at low concentration ([2]; sedanenolide 0.01 ppb, carbonated water): some panelists felt some reduction in bitterness
A: the number of panelists who felt no difference from sedanenolide-free [2, 12]: 2
B: the number of panelists who felt some reduction in bitterness [2, 12]: 2
Flavor judgment: the number of panelists who judged it as most proper bitterness [2, 12]: 1
N: the number of panelists who hardly felt bitterness [2, 12]: 6
A: the number of panelists who felt no difference from sedanenolide-free [2, 13]: 5
B: the number of panelists who felt some reduction in bitterness [2, 13]: 5
Flavor judgment: the number of panelists who judged it as most proper bitterness [2, 13]: 0
N: the number of panelists who hardly felt bitterness [2, 13]: 0
A: the number of panelists who felt no difference from sedanenolide-free [2, 14]: 0
B: the number of panelists who felt some reduction in bitterness [2, 14]: 3
Flavor judgment: the number of panelists who judged it as most proper bitterness [2, 14]: 4
N: the number of panelists who hardly felt bitterness [2, 14]: 7
A: the number of panelists who felt no difference from sedanenolide-free [2, 15]: 4
B: the number of panelists who felt some reduction in bitterness [2, 15]: 6
Flavor judgment: the number of panelists who judged it as most proper bitterness [2, 15]: 0
N: the number of panelists who hardly felt bitterness [2, 15]: 0
A: the number of panelists who felt no difference from sedanenolide-free [2, 16]: 0
B: the number of panelists who felt some reduction in bitterness [2, 16]: 3
Flavor judgment: the number of panelists who judged it as most proper bitterness [2, 16]: 5
N: the number of panelists who hardly felt bitterness [2, 16]: 7
A: the number of panelists who felt no difference from sedanenolide-free [2, 17]: 10
B: the number of panelists who felt some reduction in bitterness [2, 17]: 0
Flavor judgment: the number of panelists who judged it as most proper bitterness [2, 17]: 0
N: the number of panelists who hardly felt bitterness [2, 17]: 0
A: the number of panelists who felt no difference from sedanenolide-free [2, 18]: 0
B: the number of panelists who felt some reduction in bitterness [2, 18]: 2
Flavor judgment: the number of panelists who judged it as most proper bitterness [2, 18]: 0
N: the number of panelists who hardly felt bitterness [2, 18]: 8

Source: patent US20120231141A1, “BITTERNESS-IMPROVING AGENT FOR BITTER FOOD AND DRINK AND ASTRINGENCY-IMPROVING AGENT FOR ASTRINGENT FOOD AND DRINK” (priority 2009, published 2012)
